Measured values as given in patent US20250236608A1, “EGFR INHIBITORS” (Blueprint Medicines Corporation, priority 2022, published 2025).

How the values were obtained:
EGFR L858R = EGFR L858R (Homo sapiens (Human), UniProt P00533, L858R); experiment: Biochemical EGFR inhibition assay, EGFR L858R; settings: Caliper mobility shift; 1.0 mM ATP or ATP Km; read-out: Enz EGFR_L858R IC50
EGFR (d746-750) = EGFR (d746-750) (Homo sapiens (Human), UniProt P00533, DEL746-750); experiment: Biochemical EGFR inhibition assay, EGFR (d746-750); settings: Caliper mobility shift; 1.0 mM ATP or ATP Km; read-out: Enz EGFR_Exon19-del746-750 IC50
Sequence of EGFR (d746-750) (P00533 other isoform, or with tags, fused parts or gaps del 1-694/del 746-750 limits assumed): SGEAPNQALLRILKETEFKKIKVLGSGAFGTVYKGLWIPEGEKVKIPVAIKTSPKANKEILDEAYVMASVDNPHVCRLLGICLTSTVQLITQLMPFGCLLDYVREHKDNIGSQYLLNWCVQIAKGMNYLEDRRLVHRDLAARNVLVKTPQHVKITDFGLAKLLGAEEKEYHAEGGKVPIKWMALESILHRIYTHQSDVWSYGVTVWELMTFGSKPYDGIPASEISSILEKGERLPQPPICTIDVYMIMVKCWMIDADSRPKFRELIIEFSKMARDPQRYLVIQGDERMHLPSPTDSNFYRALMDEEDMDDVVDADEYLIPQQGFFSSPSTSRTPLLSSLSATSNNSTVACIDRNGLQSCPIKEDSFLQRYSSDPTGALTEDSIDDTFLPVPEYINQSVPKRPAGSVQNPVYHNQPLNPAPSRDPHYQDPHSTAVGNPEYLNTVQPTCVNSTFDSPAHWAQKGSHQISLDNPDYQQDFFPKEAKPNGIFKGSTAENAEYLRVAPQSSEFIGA

[1] = molecular target: pEGFR (Tyr1068) in PC-9 cells (Ex19Del) (Homo sapiens (Human), UniProt P00533, DEL746-750); experiment: PC-9 pEGFR AlphaLISA assay; type: cell-based; settings: 4 hours incubation, p-EGFR (Tyr1068) AlphaLISA, read-out: Ext pEGFR_PC-9 Ex19Del IC50
Sequence of pEGFR (Tyr1068) in PC-9 cells (Ex19Del) (P00533 other isoform, or with tags, fused parts or gaps del 746-750): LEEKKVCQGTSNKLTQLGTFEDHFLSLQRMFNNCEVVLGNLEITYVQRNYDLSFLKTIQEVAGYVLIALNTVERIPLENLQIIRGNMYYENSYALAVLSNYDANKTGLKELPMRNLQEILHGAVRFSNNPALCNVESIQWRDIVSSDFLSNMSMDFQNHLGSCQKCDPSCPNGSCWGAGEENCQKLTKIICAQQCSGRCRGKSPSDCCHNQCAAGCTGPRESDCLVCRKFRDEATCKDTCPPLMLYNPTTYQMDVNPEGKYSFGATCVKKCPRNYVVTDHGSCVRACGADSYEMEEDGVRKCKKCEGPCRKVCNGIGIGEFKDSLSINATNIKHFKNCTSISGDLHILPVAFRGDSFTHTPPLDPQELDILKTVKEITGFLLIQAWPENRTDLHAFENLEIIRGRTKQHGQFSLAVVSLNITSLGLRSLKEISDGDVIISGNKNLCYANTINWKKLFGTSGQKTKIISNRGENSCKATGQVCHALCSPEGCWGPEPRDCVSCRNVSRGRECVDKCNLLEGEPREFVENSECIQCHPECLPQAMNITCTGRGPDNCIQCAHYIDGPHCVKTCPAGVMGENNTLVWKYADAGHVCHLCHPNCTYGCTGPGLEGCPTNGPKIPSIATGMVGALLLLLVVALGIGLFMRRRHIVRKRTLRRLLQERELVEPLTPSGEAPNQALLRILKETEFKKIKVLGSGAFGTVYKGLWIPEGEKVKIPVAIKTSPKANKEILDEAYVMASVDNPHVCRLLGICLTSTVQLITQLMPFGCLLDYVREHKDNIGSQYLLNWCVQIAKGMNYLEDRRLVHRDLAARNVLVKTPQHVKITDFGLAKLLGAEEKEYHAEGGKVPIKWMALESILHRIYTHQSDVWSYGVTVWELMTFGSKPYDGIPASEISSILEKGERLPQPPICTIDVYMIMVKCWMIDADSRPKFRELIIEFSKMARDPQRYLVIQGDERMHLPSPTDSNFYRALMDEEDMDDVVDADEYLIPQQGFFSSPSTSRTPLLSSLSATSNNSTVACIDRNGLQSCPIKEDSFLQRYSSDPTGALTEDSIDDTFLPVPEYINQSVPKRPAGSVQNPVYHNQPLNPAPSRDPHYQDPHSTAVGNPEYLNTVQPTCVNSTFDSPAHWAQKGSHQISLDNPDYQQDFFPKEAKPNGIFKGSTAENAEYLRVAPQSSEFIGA
Procedure, shortened: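 Cells seeded in phenol-free DMEM with 10% FBS adhered overnight at 37° C./5% CO2, then were exposed for 4 hours to a 4-fold, 10-point compound dilution series. After lysis, phospho-EGFR was read by AlphaLISA SureFire Ultra, and IC50 was fitted from percent inhibition versus log concentration.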

Sequence of EGFR L858R (P00533 25-1210 L858R): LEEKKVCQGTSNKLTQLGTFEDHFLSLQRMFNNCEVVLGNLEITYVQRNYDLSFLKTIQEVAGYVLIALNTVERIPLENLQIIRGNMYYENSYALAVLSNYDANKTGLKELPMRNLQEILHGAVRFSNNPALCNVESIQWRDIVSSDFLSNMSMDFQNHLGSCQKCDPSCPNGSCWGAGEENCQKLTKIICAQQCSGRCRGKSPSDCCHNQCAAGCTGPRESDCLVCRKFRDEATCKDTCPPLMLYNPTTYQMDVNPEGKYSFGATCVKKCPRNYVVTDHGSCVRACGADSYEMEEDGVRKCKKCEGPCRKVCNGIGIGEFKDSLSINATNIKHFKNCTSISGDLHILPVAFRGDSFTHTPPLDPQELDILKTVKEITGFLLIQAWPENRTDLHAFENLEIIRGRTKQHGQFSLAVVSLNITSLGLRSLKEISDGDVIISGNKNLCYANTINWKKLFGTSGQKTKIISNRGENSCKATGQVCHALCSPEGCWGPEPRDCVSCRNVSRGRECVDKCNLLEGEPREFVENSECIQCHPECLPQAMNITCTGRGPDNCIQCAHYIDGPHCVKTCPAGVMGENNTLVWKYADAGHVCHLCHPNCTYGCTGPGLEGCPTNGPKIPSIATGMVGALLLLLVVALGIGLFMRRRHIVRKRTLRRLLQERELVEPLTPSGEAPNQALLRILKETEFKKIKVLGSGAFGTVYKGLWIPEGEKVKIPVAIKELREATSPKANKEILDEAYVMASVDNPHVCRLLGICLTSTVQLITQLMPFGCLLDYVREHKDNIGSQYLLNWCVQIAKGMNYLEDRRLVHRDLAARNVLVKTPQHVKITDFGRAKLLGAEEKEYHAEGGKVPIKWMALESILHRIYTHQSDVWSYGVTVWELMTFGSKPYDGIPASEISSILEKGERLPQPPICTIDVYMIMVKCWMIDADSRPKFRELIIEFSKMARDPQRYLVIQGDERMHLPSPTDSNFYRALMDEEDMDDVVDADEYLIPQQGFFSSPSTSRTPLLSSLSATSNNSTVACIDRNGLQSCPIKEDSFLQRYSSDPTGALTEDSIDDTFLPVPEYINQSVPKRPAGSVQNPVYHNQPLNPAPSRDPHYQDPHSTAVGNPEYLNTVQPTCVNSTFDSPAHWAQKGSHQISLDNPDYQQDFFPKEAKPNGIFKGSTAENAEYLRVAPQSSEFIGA

Row | SMILES | IC50 (EGFR L858R) | IC50 (EGFR (d746-750)) | IC50 [1]
1 | Cn1cc(-c2cc(F)c3c(-c4cn(C)nc4-c4ccccc4)ncnc3c2)cn1 [Example 439, 5-fluoro-7-(1-methyl-1H-pyrazol-4-yl)-4-(1-methyl-3-phenyl-1H-pyrazol-4-yl)quinazoline] | 0.7 nM | 0.4 nM | 1.7 nM
2 | CCn1cc(-c2ncnc3cc(OC)c(NC(=O)[C@@]45COC[C@@H]4C5)cc23)c(-c2ccccc2F)n1 (mixture of isomers) [Example 262, (1R,5R)—N-(4-(1-ethyl-3-(2-fluorophenyl)-1H-pyrazol-4-yl)-7-methoxyquinazolin-6-yl)-3-oxabicyclo[3.1.0]hexane-1-carboxamide and (1S,5S)—N-(4-(1-ethyl-3-(2-fluorophenyl)-1H-pyrazol-4-yl)-7-methoxyquinazolin-6-yl)-3-oxabicyclo[3.1.0]hexane-1-carboxamide] | 1.1 nM | 0.6 nM | 1.1 nM
3 | COc1cc2ncnc(-c3c[nH]nc3-c3ccccc3)c2cc1[C@H]1CCCCO1 (single isomer, unassigned) [Example 133, (R)-7-methoxy-4-(3-phenyl-1H-pyrazol-4-yl)-6-(tetrahydro-2H-pyran-2-yl)quinazoline or (S)-7-methoxy-4-(3-phenyl-1H-pyrazol-4-yl)-6-(tetrahydro-2H-pyran-2-yl)quinazoline] | 1.1 nM | 0.5 nM | 2.4 nM
4 | COc1cc2ncnc(-c3cn(C)nc3-c3ccccc3F)c2cc1N1CCOCC1 [Example 159, 4-(4-(3-(2-fluorophenyl)-1-methyl-1H-pyrazol-4-yl)-7-methoxyquinazolin-6-yl)morpholine] | 3 nM | 1.5 nM | 3.8 nM
5 | CN(C)C12CC(C(=O)Nc3nc4c(-c5cn(C)nc5-c5ccccc5F)ncnc4cc3OC(F)F)(C1)C2 [Example 468, N-[7-(difluoromethoxy)-4-[3-(2-fluorophenyl)-1-methyl-1H-pyrazol-4-yl]pyrido[3,2-d]pyrimidin-6-yl]-3-(dimethylamino) bicyclo[1.1.1]pentane-1-carboxamide] | 60.4 nM | 7.4 nM | 22 nM
6 | COc1cc2ncnc(-c3cn(C)nc3-c3ccccc3)c2nc1NC(=O)[C@H]1C[C@H]2C[C@H]2N1C [Example 419, (1R,3R,5R)—N-(7-methoxy-4-(1-methyl-3-phenyl-1H-pyrazol-4-yl)pyrido[3,2-d]pyrimidin-6-yl)-2-methyl-2-azabicyclo[3.1.0]hexane-3-carboxamide] | 1.6 nM | 1 nM | 0.4 nM
7 | COc1cc2ncnc(-c3cn(C)nc3-c3ccccc3)c2nc1OC(C)c1cccnc1F (stereo not drawn) [Example 30, 6-(1-(2-fluoropyridin-3-yl)ethoxy)-7-methoxy-4-(1-methyl-3-phenyl-1H-pyrazol-4-yl)pyrido[3,2-d]pyrimidine] | 1.4 nM | 1 nM | 1.1 nM
8 | COc1cc2ncnc(-c3cn(C)nc3-c3ccccc3)c2cc1NC(=O)c1cn(C(F)(F)F)nc1C [Example 235, N-(7-methoxy-4-(1-methyl-3-phenyl-1H-pyrazol-4-yl)quinazolin-6-yl)-3-methyl-1-(trifluoromethyl)-1H-pyrazole-4-carboxamide] | 1.6 nM | 0.9 nM | 1.5 nM
9 | COc1cc2ncnc(-c3cn(C)nc3-c3ccccc3)c2cc1NC(=O)[C@@]12COC[C@@H]1C2 (single isomer, unassigned) [Example 261, (1R,5R)—N-(7-methoxy-4-(1-methyl-3-phenyl-1H-pyrazol-4-yl)quinazolin-6-yl)-5-methyl-3-oxabicyclo[3.1.0]hexane-1-carboxamide or (1S,5S)—N-(7-methoxy-4-(1-methyl-3-phenyl-1H-pyrazol-4-yl)quinazolin-6-yl)-3-oxabicyclo[3.1.0]hexane-1-carboxamide] | 2.8 nM | 1.3 nM | 6.1 nM
10 | COc1cc2ncnc(-c3cn(CC4CC4)nc3-c3ccccc3)c2nc1NC(=O)[C@]12C[C@H]1CN(C)C2 (single isomer, unassigned) [Example 409, (1S,5S)—N-(4-(1-(cyclopropylmethyl)-3-phenyl-1H-pyrazol-4-yl)-7-methoxypyrido[3,2-d]pyrimidin-6-yl)-3-methyl-3-azabicyclo[3.1.0]hexane-1-carboxamide or (1R,5R)—N-(4-(1-(cyclopropylmethyl)-3-phenyl-1H-pyrazol-4-yl)-7-methoxypyrido[3,2-d]pyrimidin-6-yl)-3-methyl-3-azabicyclo[3.1.0]hexane-1-carboxamide] | 1 nM | 0.6 nM | 0.8 nM
11 | COc1cc2ncnc(-c3cn(C)nc3-c3ccccc3)c2cc1NC(=O)c1cccc(F)c1C [Example 200, 3-fluoro-N-(7-methoxy-4-(1-methyl-3-phenyl-1H-pyrazol-4-yl)quinazolin-6-yl)-2-methylbenzamide] | 5.7 nM | 2.4 nM | 8.4 nM
12 | COc1cc2ncnc(-c3cn(C)nc3-c3ccccc3)c2cc1NC(=O)C12CC(F)(C1)C2 [Example 342, 3-fluoro-N-(7-methoxy-4-(1-methyl-3-phenyl-1H-pyrazol-4-yl)quinazolin-6-yl)bicyclo[1.1.1]pentane-1-carboxamide] | 6.7 nM | 3.5 nM | 11.2 nM
13 | COc1cc2ncnc(-c3cn(CC(F)F)nc3-c3ccccc3)c2cc1OC(=O)N1CCN(C)C[C@@H]1C [Example 70, 4-(1-(2,2-difluoroethyl)-3-phenyl-1H-pyrazol-4-yl)-7-methoxyquinazolin-6-yl (S)-2,4-dimethylpiperazine-1-carboxylate] | 2.7 nM | 1.7 nM | 1.6 nM
14 | CCOc1cc2ncnc(-c3cn(C)nc3-c3ccccc3)c2cc1OC1CCN(C)CC1 [Example 9, 7-ethoxy-4-(1-methyl-3-phenyl-1H-pyrazol-4-yl)-6-((1-methylpiperidin-4-yl)oxy)quinazoline] | 13.1 nM | 6.4 nM | 9.8 nM
15 | CCn1cc(-c2ncnc3cc(OC)c(NC(=O)[C@]45C[C@H]4CN(C)C5)nc23)c(-c2ccc(F)cc2)n1 (single isomer, unassigned) [Example 399, (1R,5R)—N-(4-(1-ethyl-3-(4-fluorophenyl)-1H-pyrazol-4-yl)-7-methoxypyrido[3,2-d]pyrimidin-6-yl)-3-methyl-3-azabicyclo[3.1.0]hexane-1-carboxamide or (1S,5S)—N-(4-(1-ethyl-3-(4-fluorophenyl)-1H-pyrazol-4-yl)-7-methoxypyrido[3,2-d]pyrimidin-6-yl)-3-methyl-3-azabicyclo[3.1.0]hexane-1-carboxamide] | 1.2 nM | 0.9 nM | 1.3 nM
16 | CCOc1cc2ncnc(-c3cn(C(C)C)nc3-c3ccccc3)c2cc1[C@H](C)O (single isomer, unassigned) [Example 110, (S)-1-(7-ethoxy-4-(1-isopropyl-3-phenyl-1H-pyrazol-4-yl)quinazolin-6-yl)ethan-1-ol or (R)-1-(7-ethoxy-4-(1-isopropyl-3-phenyl-1H-pyrazol-4-yl)quinazolin-6-yl)ethan-1-ol] | 1.8 nM | 1.4 nM | 2.5 nM
17 | COc1cc2ncnc(-c3cn(C)nc3-c3ccccc3)c2cc1OC(=O)N1CCO[C@@H]2C[C@@H]21 (racemic) [Example 83, Cis-rac-7-methoxy-4-(1-methyl-3-phenyl-1H-pyrazol-4-yl)quinazolin-6-yl (1R,6S)-2-oxa-5-azabicyclo[4.1.0]heptane-5-carboxylate] | 3 nM | 2.2 nM | 4.9 nM
18 | COc1cc2ncnc(-c3cn(C)nc3-c3ccccc3)c2nc1NC(=O)c1cn(C(C)C)nc1C [Example 310, 1-isopropyl-N-(7-methoxy-4-(1-methyl-3-phenyl-1H-pyrazol-4-yl)pyrido[3,2-d]pyrimidin-6-yl)-3-methyl-1H-pyrazole-4-carboxamide] | 3.4 nM | 1.3 nM | 3.1 nM
19 | CCOc1cc2ncnc(-c3cn(C)nc3-c3ccccc3)c2nc1NC1CCOCC1 [Example 158, 7-ethoxy-4-(1-methyl-3-phenyl-1H-pyrazol-4-yl)-N-(tetrahydro-2H-pyran-4-yl)pyrido[3,2-d]pyrimidin-6-amine] | 1.7 nM | 1.4 nM | 0.2 nM
20 | C[C@H](O)c1cc2c(-c3cn(CC(F)F)nc3-c3ccccc3)ncnc2cc1O[C@H]1CCOC1 (single isomer, unassigned) [Example 117, (S)-1-(4-(1-(2,2-difluoroethyl)-3-phenyl-1H-pyrazol-4-yl)-7-(((S)-tetrahydrofuran-3-yl)oxy)quinazolin-6-yl)ethan-1-ol or (R)-1-(4-(1-(2,2-difluoroethyl)-3-phenyl-1H-pyrazol-4-yl)-7-(((S)-tetrahydrofuran-3-yl)oxy)quinazolin-6-yl)ethan-1-ol] | 1.9 nM | 0.6 nM | 3.4 nM
21 | COc1cc2ncnc(-c3cn(C)nc3-c3ccccc3)c2nc1NC(=O)C1CC1 [Example 355, N-(7-methoxy-4-(1-methyl-3-phenyl-1H-pyrazol-4-yl)pyrido[3,2-d]pyrimidin-6-yl)cyclopropanecarboxamide] | 1.7 nM | 1 nM | 0.8 nM
